The results in this text go back to patent publication US20040009156A1, “Antisense therapy using oligonucleotides that target human kinesin genes for treatment of cancer” (priority 2001, published 2004).

The test system of data set [1] is SW620 cells. Kind of data set: LDH cytotoxicity assay, alone and with cisplatinum. The format is cell-based, human. The settings on record: FIG. 4. On the procedure: LDH cytotoxicity assays were performed to determine the effect of antisense oligonucleotides on SW620 cell death alone and in the presence of the chemotherapeutic drug cisplatinum. […] Also, the same LDH cytotoxicity assays were performed on MRC9 cells transfected with the same oligonucleotides in the presence or absence of cisplatinum.

Data set [2] has as its system human colon cancer cell line SW620. Kind of data set: Soft agar growth (anchorage independent growth) of transfected SW620 cells. Type of data set: cell-based. The settings on record: SW620 cells transfected with antisense oligonucleotide; versus reverse control; FIG. 1. The source says:
The antisense oligonucleotides (SEQ IDNO:17), (SEQ IDNO:4), and (SEQ ID NO:1) were each transfected into the human colon cancer cell line SW620. Additionally, the same colon cancer cell line was transfected with the corresponding reverse control sequences (respectively SEQ ID NO:35, SEQ ID NO:22 and SEQ ID NO:19). […] These assay results contained in FIG. 1 indicate that the synthesized kinesin antisense oligonucleotides inhibit tumorigenesis.

Data set [3] deals with SW620 cells. As to the kind of experiment: Cell cycle profile by FACS analysis of propidium iodide stained cells. Type of data set: cell-based, human. Conditions: SW620 cells transiently transfected; FIG. 2. On the procedure:
SW620 cells were transiently transfected with antisense oligonucleotides according to the invention and the effect on cell cycle profile evaluated by FACS analysis of propidium iodide stained cells. It was observed that cell tested antisense oligonucleotides arrested cells in G2/M phase to different degrees. […] Also, the effect of the same antisense oligonucleotides on the cell cycle of normal human filonblasts was tested.

Regarding “CCTCCGCCATCCTATCAGGCTGAA (chemistry not given here) [SEQ ID NO:1]”, in the data set on SW620 cells [1], the “cell death (LDH cytotoxicity), oligonucleotide alone” value is “did not induce cytotoxicity”. For the same sequence, in data set [2], the “capability of the cells to grow in soft agar (anchorage independent growth)” value (“capability of the cells to grow” below) was “significantly inhibited”. The “cell cycle arrest in G2/M phase” value in the data set on SW620 cells [3] was “next best inhibiting effect”.

As to “GTTGATCTGGGCTCGCAGAGGTAAT (chemistry not given here) [SEQ ID NO:4]”, the “cell death (LDH cytotoxicity), oligonucleotide alone” value in the data set with SW620 cells [1] is on record as “induced death”. The “capability of the cells to grow” value in data set [2] is listed as “significantly inhibited”.

On to “TGGATAAATTGCCTGGAATCAGCGC (chemistry not given here) [SEQ ID NO:17]”, for which, in the data set on SW620 cells [1] (in combination with the chemotherapeutic drug cisplatinum), the “cytotoxicity (LDH) in combination with cisplatinum” value is “increase in cytotoxicity”. In addition, in data set [2], the “capability of the cells to grow” value is given as “significantly inhibited”.
